Species: Rattus norvegicus
Assay: DrugMatrix - Regimen: Daily Repeat
Format: toxicity, organism-based, Sprague-Dawley
Set-up: regimen Daily Repeat, gender Male, age 6-8 weeks
Settings: in vivo, po, 75 mg/kg, route oral GAVAGE, dose level High, vehicle .5 % CMC; for ABSOLUTE BASOPHIL / ABSOLUTE EOSINOPHIL / ABSOLUTE LYMPHOCYTE / ABSOLUTE MONOCYTE / ABSOLUTE SEGMENTED NEUTROPHIL / BASOPHIL / EOSINOPHIL / ERYTHROCYTE COUNT / HEMATOCRIT / HEMOGLOBIN / LEUKOCYTE COUNT / LYMPHOCYTE / MEAN CORPUSCULAR HEMOGLOBIN / MEAN CORPUSCULAR HEMOGLOBIN CONCENTRATION / MEAN CORPUSCULAR VOLUME / MONOCYTE / NEUTROPHIL / NUCLEATED RED BLOOD CELLS / PLATELET COUNT: tissue Blood; for ALANINE AMINOTRANSFERASE / ALBUMIN / ALKALINE PHOSPHATASE / ASPARTATE AMINOTRANSFERASE / BLOOD UREA NITROGEN / CARBON DIOXIDE / CHLORIDE / CHOLESTEROL / CREATININE / GLUCOSE / LACTATE DEHYDROGENASE / LIPASE / PHOSPHORUS / POTASSIUM / SODIUM / TOTAL BILIRUBIN / TOTAL PROTEIN / URIC ACID: tissue Plasma

## Nc1ccc(Cl)cc1 [4-CHLOROANILINE]
120 h, time 5 day
  ABSOLUTE BASOPHIL: 0 CELLS/uL
  ABSOLUTE EOSINOPHIL: 666.67 CELLS/uL
  ABSOLUTE LYMPHOCYTE: 19854.67 CELLS/uL
  ABSOLUTE MONOCYTE: 430.67 CELLS/uL
  ABSOLUTE SEGMENTED NEUTROPHIL: 5848 CELLS/uL
  BASOPHIL: 0%
  EOSINOPHIL: 2.33%
  ERYTHROCYTE COUNT: 4.48 x10E6/uL
  HEMATOCRIT: 32.57%
  HEMOGLOBIN: 13.73 G/DL
  LEUKOCYTE COUNT: 26.8 x10E3/uL
  LYMPHOCYTE: 74%
  MEAN CORPUSCULAR HEMOGLOBIN: 30.77 pg
  MEAN CORPUSCULAR HEMOGLOBIN CONCENTRATION: 42.2 G/DL
  MEAN CORPUSCULAR VOLUME: 72.87 fL
  MONOCYTE: 1.67%
  NEUTROPHIL: 22%
  NUCLEATED RED BLOOD CELLS: 1.33 /100WBC
  PLATELET COUNT: 1147 x10E3/uL
  ALANINE AMINOTRANSFERASE: 61.33 u/L
  ALBUMIN: 4.23 G/DL
  ALKALINE PHOSPHATASE: 360.33 u/L
  ASPARTATE AMINOTRANSFERASE: 93.67 u/L
  BLOOD UREA NITROGEN: 13 mg/dL
  CARBON DIOXIDE: 31.33 mmol/L
  CHLORIDE: 102.33 MEQ/L
  CHOLESTEROL: 64.67 mg/dL
  CREATININE: 0.2 mg/dL
  GLUCOSE: 157.33 mg/dL
  LACTATE DEHYDROGENASE: 180.67 u/L
  LIPASE: 9 u/L
  PHOSPHORUS: 11.23 mg/dL
  POTASSIUM: 6.43 MEQ/L
  SODIUM: 148.33 MEQ/L
  TOTAL BILIRUBIN: 0.43 mg/dL
  TOTAL PROTEIN: 6.23 G/DL
  URIC ACID: 1.87 mg/dL
[…], time 14 day
  ABSOLUTE BASOPHIL: 0 CELLS/uL
  ABSOLUTE EOSINOPHIL: 83.2 CELLS/uL
  ABSOLUTE LYMPHOCYTE: 19196.8 CELLS/uL
  ABSOLUTE MONOCYTE: 524.8 CELLS/uL
  ABSOLUTE SEGMENTED NEUTROPHIL: 2275.2 CELLS/uL
  BASOPHIL: 0%
  EOSINOPHIL: 0.4%
  ERYTHROCYTE COUNT: 3.73 x10E6/uL
  HEMATOCRIT: 34.9%
  HEMOGLOBIN: 13.26 G/DL
  LEUKOCYTE COUNT: 22.08 x10E3/uL
  LYMPHOCYTE: 86.8%
  MEAN CORPUSCULAR HEMOGLOBIN: 35.82 pg
  MEAN CORPUSCULAR HEMOGLOBIN CONCENTRATION: 38.02 G/DL
  MEAN CORPUSCULAR VOLUME: 94.18 fL
  MONOCYTE: 2.4%
  NEUTROPHIL: 10.4%
  NUCLEATED RED BLOOD CELLS: 1 /100WBC
  PLATELET COUNT: 846.6 x10E3/uL
  ALANINE AMINOTRANSFERASE: 56.6 u/L
  ALBUMIN: 4.38 G/DL
  ALKALINE PHOSPHATASE: 320.6 u/L
  ASPARTATE AMINOTRANSFERASE: 128 u/L
  BLOOD UREA NITROGEN: 15.4 mg/dL
  CARBON DIOXIDE: 29.8 mmol/L
  CHLORIDE: 103.2 MEQ/L
  CHOLESTEROL: 57 mg/dL
  CREATININE: 0.22 mg/dL
  GLUCOSE: 123.8 mg/dL
  LACTATE DEHYDROGENASE: 440.6 u/L
  LIPASE: 9.6 u/L
  PHOSPHORUS: 10.5 mg/dL
  POTASSIUM: 6.12 MEQ/L
  SODIUM: 148.96 MEQ/L
  TOTAL BILIRUBIN: 0.54 mg/dL
  TOTAL PROTEIN: 6.16 G/DL
  URIC ACID: 1.72 mg/dL

Source: ChEMBL document CHEMBL3885881, “DrugMatrix”
